Reference: patent US12291519B2, “2-hydroxycycloalkane-1-carbamoyl” (Idorsia Pharmaceuticals Ltd, priority 2019, dated 2025)

Columns and labels:
[1] = target: human Gal-3 (hGal-3) (Homo sapiens (Human), UniProt P17931); assay: Competitive binding assay: biotinylated hGal-3 binding to microplate-adsorbed asialofetuin (ASF); conditions: Activity on hGal-3; binding of biotinylated hGal-3 to ASF-coated plates; mean values
How it was run: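 Serially diluted compounds competed with biotinylated human Gal-3 for binding to plate-adsorbed asialofetuin over 3 h at 4 °C. Bound Gal-3 was detected with streptavidin-peroxidase (80 ng/mL, 1 h, 4 °C) and ABTS substrate. IC50 values are means of several measurements.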

[2] = target: human Gal-1 (hGal-1); assay: Competitive binding assay: biotinylated hGal-1 binding to microplate-adsorbed asialofetuin (ASF); conditions: Activity on hGal-1; binding of biotinylated hGal-1 to ASF-coated plates; mean values
Sequence of human Gal-1 (hGal-1) (P09382 2-135 limits assumed): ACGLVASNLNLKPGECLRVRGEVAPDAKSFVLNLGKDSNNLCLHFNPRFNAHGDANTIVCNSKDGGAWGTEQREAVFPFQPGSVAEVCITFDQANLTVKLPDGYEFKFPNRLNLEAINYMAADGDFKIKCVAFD
How it was run: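 Inhibition measured as loss of hGal-1 (biotinylated, 300–1000 ng/mL, wild type or Cys→Ser mutant) binding to adsorbed asialofetuin over 3 h at 4 °C. Bound lectin detected with streptavidin-HRP and ABTS (410 nm, 30–45 min); IC50 values averaged across repeat measurements.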

Sequence of human Gal-3 (hGal-3) (P17931 whole entry): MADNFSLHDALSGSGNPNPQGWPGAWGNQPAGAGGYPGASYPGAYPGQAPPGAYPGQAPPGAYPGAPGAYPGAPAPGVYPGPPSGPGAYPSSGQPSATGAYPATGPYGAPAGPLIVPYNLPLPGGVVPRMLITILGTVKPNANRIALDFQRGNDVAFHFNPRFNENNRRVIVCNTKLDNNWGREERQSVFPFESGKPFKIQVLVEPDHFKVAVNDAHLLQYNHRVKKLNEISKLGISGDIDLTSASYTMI

| Compound | IC50 [1] [µM] | IC50 [2] [µM] |
| --- | --- | --- |
| CO[C@@H]1[C@@H](n2cc(-c3cc(F)cc(Br)c3)nn2)[C@@H](O)[C@@H](CO)O[C@H]1C(=O)N(c1cc(Cl)cc(C#N)c1)[C@H]1CCCC[C@@H]1O [Example 145, (2R,3R,4S,5R,6R)-4-(4-(3-bromo-5-fluorophenyl)-1H-1,2,3-triazol-1-yl)-N-(3-chloro-5-cyanophenyl)-5-hydroxy-N-((1S,2S)-2-hydroxycyclohexyl)-6-(hydroxymethyl)-3-methoxytetrahydro-2H-pyran-2-carboxamide] | 0.018 | 0.218 |
| CO[C@@H]1[C@@H](n2cc(-c3cc(F)c(Br)c(F)c3)nn2)[C@@H](O)[C@@H](CO)O[C@H]1C(=O)N(c1ccc2scnc2c1)[C@H]1CCCC[C@@H]1O [Example 153, (2R,3R,4S,5R,6R)-N-(benzo[d]thiazol-5-yl)-4-(4-(4-bromo-3,5-difluorophenyl)-1H-1,2,3-triazol-1-yl)-5-hydroxy-N-((1S,2S)-2-hydroxycyclohexyl)-6-(hydroxymethyl)-3-methoxytetrahydro-2H-pyran-2-carboxamide] | 0.025 | 1.08 |
| CO[C@@H]1[C@@H](n2cc(-c3cc(F)c(F)c(F)c3)nn2)[C@@H](O)[C@@H](CO)O[C@H]1C(=O)N(c1ccc2nc(Cl)sc2c1)[C@H]1CCCC[C@@H]1O [Example 107, (2R,3R,4S,5R,6R)-N-(2-chlorobenzo[d]thiazol-6-yl)-5-hydroxy-N-((1S,2S)-2-hydroxycyclohexyl)-6-(hydroxymethyl)-3-methoxy-4-(4-(3,4,5-trifluorophenyl)-1H-1,2,3-triazol-1-yl)tetrahydro-2H-pyran-2-carboxamide] | 0.317 | 1.2 |
| CO[C@@H]1[C@@H](n2cc(-c3ccc4nc(C)sc4c3)nn2)[C@@H](O)[C@@H](CO)O[C@H]1C(=O)N(c1cc(Cl)cc(Cl)c1)[C@H]1CCCC[C@@H]1O [Example 191, (2R,3R,4S,5R,6R)-N-(3,5-dichlorophenyl)-5-hydroxy-N-((1S,2S)-2-hydroxycyclohexyl)-6-(hydroxymethyl)-3-methoxy-4-(4-(2-methylbenzo[d]thiazol-6-yl)-1H-1,2,3-triazol-1-yl)tetrahydro-2H-pyran-2-carboxamide] | 0.041 | 1.14 |
| CC(=O)O[C@@H]1[C@@H](n2cc(-c3cccc(F)c3)nn2)[C@@H](O)[C@@H](CO)O[C@H]1C(=O)N(Cc1ccccc1C(F)(F)F)[C@H]1CCCC[C@@H]1O [Example 62, (2R,3R,4S,5R,6R)-4-(4-(3-fluorophenyl)-1H-1,2,3-triazol-1-yl)-5-hydroxy-2-(((1S,2S)-2-hydroxycyclohexyl)(2-(trifluoromethyl)benzyl)carbamoyl)-6-(hydroxymethyl)tetrahydro-2H-pyran-3-yl acetate] | 0.141 | 0.939 |
| CO[C@@H]1[C@@H](n2cc(-c3ccc(Br)c(F)c3)nn2)[C@@H](O)[C@@H](CO)O[C@H]1C(=O)N(c1cc(Cl)cc(Cl)c1)[C@H]1CCCC[C@@H]1O [Example 163, (2R,3R,4S,5R,6R)-4-(4-(4-bromo-3-fluorophenyl)-1H-1,2,3-triazol-1-yl)-N-(3,5-dichlorophenyl)-5-hydroxy-N-((1S,2S)-2-hydroxycyclohexyl)-6-(hydroxymethyl)-3-methoxytetrahydro-2H-pyran-2-carboxamide] | 0.018 | 1.27 |

The remaining compounds from weak to strong by IC50 [1], led by results:

| IC50 [1] [µM] | IC50 [2] [µM] | Compound |
| --- | --- | --- |
| 0.196 | 6.77 | CO[C@@H]1[C@@H](n2cc(-c3cc(F)c(F)c(F)c3)nn2)[C@@H](O)[C@@H](CO)O[C@H]1C(=O)N(Cc1nc2ccccc2cc1Cl)[C@H]1CCCC[C@@H]1O [Example 65, (2R,3R,4S,5R,6R)-N-((3-chloroquinolin-2-yl)methyl)-5-hydroxy-N-((1S,2S)-2-hydroxycyclohexyl)-6-(hydroxymethyl)-3-methoxy-4-(4-(3,4,5-trifluorophenyl)-1H-1,2,3-triazol-1-yl)tetrahydro-2H-pyran-2-carboxamide] |
| 0.069 | 1.54 | COc1cccc(N(C(=O)[C@@H]2O[C@H](CO)[C@H](O)[C@H](n3cc(-c4cccc(F)c4)nn3)[C@H]2OC)[C@H]2CCCC[C@@H]2O)c1 [Example 73, (2R,3R,4S,5R,6R)-4-(4-(3-fluorophenyl)-1H-1,2,3-triazol-1-yl)-5-hydroxy-N-((1S,2S)-2-hydroxycyclohexyl)-6-(hydroxymethyl)-3-methoxy-N-(3-methoxyphenyl)tetrahydro-2H-pyran-2-carboxamide] |
| 0.049 | 1.79 | CO[C@@H]1[C@@H](n2cc(-c3cc(F)c(F)c(F)c3)nn2)[C@@H](O)[C@@H](CO)O[C@H]1C(=O)N(c1cccc(Cl)c1)[C@H]1CCCCC[C@@H]1O [Example 207, (2R,3R,4S,5R,6R)-N-(3-chlorophenyl)-5-hydroxy-N-((1S,2S)-2-hydroxycycloheptyl)-6-(hydroxymethyl)-3-methoxy-4-(4-(3,4,5-trifluorophenyl)-1H-1,2,3-triazol-1-yl)tetrahydro-2H-pyran-2-carboxamide] |
| 0.043 | 1.24 | CO[C@@H]1[C@@H](n2cc(-c3cc(F)c(F)c(F)c3)nn2)[C@@H](O)[C@@H](CO)O[C@H]1C(=O)N(c1ccc2ccsc2c1)[C@H]1CCCC[C@@H]1O [Example 102, (2R,3R,4S,5R,6R)-N-(benzo[b]thiophen-6-yl)-5-hydroxy-N-((1S,2S)-2-hydroxycyclohexyl)-6-(hydroxymethyl)-3-methoxy-4-(4-(3,4,5-trifluorophenyl)-1H-1,2,3-triazol-1-yl)tetrahydro-2H-pyran-2-carboxamide] |
| 0.037 | 0.359 | CO[C@@H]1[C@@H](n2cc(-c3ccc(Cl)c(Cl)c3)nn2)[C@@H](O)[C@@H](CO)O[C@H]1C(=O)N(c1cc(F)cc(C#N)c1)[C@H]1CCCC[C@@H]1O [Example 187, (2R,3R,4S,5R,6R)-N-(3-cyano-5-fluorophenyl)-4-(4-(3,4-dichlorophenyl)-1H-1,2,3-triazol-1-yl)-5-hydroxy-N-((1S,2S)-2-hydroxycyclohexyl)-6-(hydroxymethyl)-3-methoxytetrahydro-2H-pyran-2-carboxamide] |
| 0.019 | 1.19 | COc1cc(Cl)cc(N(C(=O)[C@@H]2O[C@H](CO)[C@H](O)[C@H](n3cc(-c4cc(F)c(F)c(F)c4)nn3)[C@H]2OC)[C@H]2CCCC[C@@H]2O)c1 [Example 104, (2R,3R,4S,5R,6R)-N-(3-chloro-5-methoxyphenyl)-5-hydroxy-N-((1S,2S)-2-hydroxycyclohexyl)-6-(hydroxymethyl)-3-methoxy-4-(4-(3,4,5-trifluorophenyl)-1H-1,2,3-triazol-1-yl)tetrahydro-2H-pyran-2-carboxamide] |
| 0.009 | 0.509 | Cc1ccc(-c2cn([C@H]3[C@@H](O)[C@@H](CO)O[C@@H](C(=O)N(c4cc(Cl)cc(C#N)c4)[C@H]4CCCC[C@@H]4O)[C@@H]3OCC(=O)N3CCOCC3)nn2)c(F)c1F [Example 173, (2R,3R,4S,5R,6R)-N-(3-chloro-5-cyanophenyl)-4-(4-(2,3-difluoro-4-methylphenyl)-1H-1,2,3-triazol-1-yl)-5-hydroxy-N-((1S,2S)-2-hydroxycyclohexyl)-6-(hydroxymethyl)-3-(2-morpholino-2-oxoethoxy)tetrahydro-2H-pyran-2-carboxamide] |
